pEC50: −log10 of the molar value.
These molecules were tested against T1, FSHR (Homo sapiens, UniProt P23945) (assay: EC50 of cyclic AMP production in CHO FSHR cells + EC20 FSH (Assay A)). Details: not given.
T1 construct: expressed in transfected cells; host or cells: CHO (Cho-FSHR-LUC-1-1-43)
T1 sequence (P23945 18-695): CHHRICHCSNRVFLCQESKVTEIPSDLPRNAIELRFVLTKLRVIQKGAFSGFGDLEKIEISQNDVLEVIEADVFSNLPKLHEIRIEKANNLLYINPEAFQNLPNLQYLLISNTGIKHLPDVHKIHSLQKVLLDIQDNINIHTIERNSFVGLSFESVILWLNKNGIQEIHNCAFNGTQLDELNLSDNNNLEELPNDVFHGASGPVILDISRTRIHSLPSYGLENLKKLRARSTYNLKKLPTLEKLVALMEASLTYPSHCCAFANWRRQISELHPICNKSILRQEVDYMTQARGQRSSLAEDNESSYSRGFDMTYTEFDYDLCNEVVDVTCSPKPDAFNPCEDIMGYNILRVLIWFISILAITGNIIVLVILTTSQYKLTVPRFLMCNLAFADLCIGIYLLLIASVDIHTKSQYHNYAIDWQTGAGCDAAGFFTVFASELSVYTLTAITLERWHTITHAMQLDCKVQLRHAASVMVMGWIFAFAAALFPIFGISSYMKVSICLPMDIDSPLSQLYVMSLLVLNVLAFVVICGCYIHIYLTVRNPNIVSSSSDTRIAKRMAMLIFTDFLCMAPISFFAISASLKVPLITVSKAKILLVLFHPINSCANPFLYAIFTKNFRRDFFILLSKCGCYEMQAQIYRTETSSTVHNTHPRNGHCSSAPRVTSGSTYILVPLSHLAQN
Format: cell-based
Procedure: EC50 of Cyclic AMP Production in CHO FSHR Cells+EC20 FSH (Assay A)
2500 Cho-FSHR-LUC-1-1-43 cells were plated per well in 5 μl of phenol red free DMEM/F12+1% FBS. Cells were plated in 384 well, solid white low volume plates (Greiner 784075) by Multidrop. Cells were assayed by adding 100 μl of 2×EC20 FSH/IBMX in DMEM/F12+0.1% BSA) by Multidrop to 2 μl of test compound stamped in 384 well plates (compounds are diluted 1:50). The final FSH concentration was […], and the final IBMX concentration was 200 μM. The compound plate map was as follows: Column 1: 2 μl of DMSO; Column 2: 2 μl of DMSO; Columns 3-12 and 13-24: 2 μl of test compound, diluted 1:4 in 100% DMSO, or 2 μl of FSH, diluted 1:4 in DMEM/F12+0.1% BSA. The starting concentration for FSH was 50 nM (final concentration was 0.5 nM). Furthermore, Column 23 contained 2 μl of EC100 FSH reference (100×) (diluted in DMEM/F12+0.1% BSA) at a final concentration of 0.5 nM, and Column 24 contained 2 μl of 1 mM AS707664/2 reference compound 2. 5 μl of compound+EC20 FSH mixture were transferred to cell plates (1:2 dilution into 5 μl of cell media) The plates were incubated at 37° C. for 1 h. 10 μl of mixed HTRF (CisBio #62AM4PEC) reagents were added per well and incubated at room temperature for 1 h. The plates were read on Envision using the cAMP HTRF—low volume 384 well protocol. The readout was the calculated fluorescence ratio (665 nm/620 nm). Values given in percent (%) indicate the percental effect (response) at a certain concentration of agonist relative to the maximum response of the FSH standard.
[2H]C([2H])([2H])OCC(C)(C)N(C(=O)c1nn(-c2ccsc2)c2c1COc1cc(OC)c(C=C(C)C)cc1-2)C([2H])([2H])[2H] [Compound 58] was tested, and the pEC50 was > 7.00.

Same assay, conditions: CHO FSHR cells + EC20 FSH, cAMP HTRF; read-out: Assay A: EC50 of cyclic AMP production
COc1cc2c(cc1C=C(C)C)-c1c(c(C(=O)NCCCNC(=O)C3CCC3)nn1-c1ccsc1)CO2 [Compound 57, 7-methoxy-8-(2-methyl-propenyl)-1-thiophen-3-yl-1,4-dihydro-chromeno[4,3-c]pyrazole-3-carboxylic Acid [3-(cyclobutanecarbonyl-amino)-propyl]-amide] gave a pEC50 of 5.30 to 6.00. With COc1cc2c(cc1OC(C)C)-c1c(c(C(=O)N(C)CCN(C)C(=O)C3CCC3)nn1-c1ccsc1)CO2 [Compound 29] the pEC50 was > 7.00. Work on [2H]C([2H])([2H])N(CCNC(=O)c1nn(-c2ccsc2)c2c1COc1cc(OC)c(C=C(C)C)cc1-2)C(C)=O [Compound 60] yielded a pEC50 of 6.00 to 7.00. In the case of CCCn1nc(C)cc1-c1cc2c(cc1OC)OCc1c(C(=O)N3CCOCC3(C)C)nn(-c3ccsc3)c1-2 [Compound 212, (3,3-Dimethyl-morpholin-4-yl)-[7-methoxy-8-(5-methyl-2-propyl-2H-pyrazol-3-yl)-1-thiophen-3-yl-1,4-dihydro-chromeno[4,3-c]pyrazol-3-yl]-methanone], the pEC50 was > 7.00. COc1cc2c(cc1S(=O)(=O)C(C)C)-c1c(c(C(=O)NC3(CO)COC3)nn1-c1ccsc1)CO2 [Compound 187, 7-Methoxy-8-(propane-2-sulfonyl)-1-thiophen-3-yl-1,4-dihydro-chromeno[4,3-c]pyrazole-3-carboxylic Acid (3-hydroxymethyl-oxetan-3-yl)-amide] was tested, and the pEC50 was < 5.30. With COc1cc2c(cc1-c1cnc(C)s1)-c1c(c(C(=O)N(C)C(C)(C)C)nn1-c1ccsc1)CO2 [Compound 73, 7-Methoxy-8-(2-methyl-thiazol-5-yl)-1-thiophen-3-yl-1,4-dihydro-chromeno[4,3-c]pyrazole-3-carboxylic acid tert-butyl-methyl-amide] the pEC50 was > 7.00. COc1cc2c(cc1-c1c[nH]nc1C)-c1c(c(C(=O)NC3CCOC3)nn1-c1ccsc1)CO2 (stereo not shown) [Compound 135, 7-Methoxy-8-(3-methyl-1H-pyrazol-4-yl)-1-thiophen-3-yl-1,4-dihydro-chromeno[4,3-c]pyrazole-3-carboxylic acid (tetrahydro-furan-3-yl)-amide] gave a pEC50 of 5.30 to 6.00. In the case of COc1cc2c(cc1C=C(C)C)-c1c(c(C(=O)N3CCOCC3)nn1-c1ccsc1)CO2 [Compound 117, [7-Methoxy-8-(2-methyl-propenyl)-1-thiophen-3-yl-1,4-dihydro-chromeno[4,3-c]pyrazol-3-yl]-morpholin-4-yl-methanone], the pEC50 was 6.00 to 7.00. COc1cc2c(cc1C=C(C)C)-c1c(c(C(=O)N(C)CCN(C)C(C)=O)nn1-c1ccsc1)CO2 [Compound 34] was tested, and the pEC50 was > 7.00. COc1cc2c(cc1-c1ccn(C)n1)-c1c(c(C(=O)N(C)C3COC3)nn1-c1ccsc1)CO2 [Compound 104, 7-Methoxy-8-(1-methyl-1H-pyrazol-3-yl)-1-thiophen-3-yl-1,4-dihydro-chromeno[4,3-c]pyrazole-3-carboxylic acid methyl-oxetan-3-yl-amide] gave a pEC50 of 5.30 to 6.00. With COc1cc2c(cc1C1=CCN(C)CC1)-c1c(c(C(=O)N(C)C(C)(C)C)nn1-c1ccsc1)CO2 [Compound 68, 7-Methoxy-8-(1-methyl-1,2,3,6-tetrahydro-pyridin-4-yl)-1-thiophen-3-yl-1,4-dihydro-chromeno[4,3-c]pyrazole-3-carboxylic acid tert-butyl-methyl-amide] the pEC50 was > 7.00. In the case of COc1cc2c(cc1-c1cnn(CCN3CCCC3)c1)-c1c(c(C(=O)N3CCOCC3(C)C)nn1-c1ccsc1)CO2 [Compound 206, (3,3-Dimethyl-morpholin-4-yl)-{7-methoxy-8-[1-(2-pyrrolidin-1-yl-ethyl)-1H-pyrazol-4-yl]-1-thiophen-3-yl-1,4-dihydro-chromeno[4,3-c]pyrazol-3-yl}-methanone], the pEC50 was 6.00 to 7.00. COc1cc2c(cc1-c1c(C)cnn1C)-c1c(c(C(=O)N(C)C(C)(C)C)nn1-c1ccsc1)CO2 [Compound 76, 8-(2,4-Dimethyl-2H-pyrazol-3-yl)-7-methoxy-1-thiophen-3-yl-1,4-dihydro-chromeno[4,3-c]pyrazole-3-carboxylic acid tert-butyl-methyl-amide] was tested, and the pEC50 was > 7.00. [2H]C([2H])([2H])O[C@H]1CC[C@H](N(C(=O)c2nn(-c3ccsc3)c3c2COc2cc(OC)c(-c4ccn(C)n4)cc2-3)C([2H])([2H])[2H])C1 [Compound 196] was tested, and the pEC50 was < 5.30. In the case of COc1cc2c(cc1-c1ccnn1C)-c1c(c(C(=O)N(C)CC3(C)COC3)nn1-c1ccsc1)CO2 [Compound 110, 7-Methoxy-8-(2-methyl-2H-pyrazol-3-yl)-1-thiophen-3-yl-1,4-dihydro-chromeno[4,3-c]pyrazole-3-carboxylic acid methyl-(3-methyl-oxetan-3-ylmethyl)-amide], the pEC50 was > 7.00. For COc1cc2c(cc1-c1ccn(C)n1)-c1c(c(C(=O)N3CCN(C(=O)OC(C)(C)C)CC3(C)C)nn1-c1ccsc1)CO2 [Compound 156, 4-[7-Methoxy-8-(1-methyl-1H-pyrazol-3-yl)-1-thiophen-3-yl-1,4-dihydro-chromeno[4,3-c]pyrazole-3-carbonyl]-3,3-dimethyl-piperazine-1-carboxylic acid tert-butyl ester], the pEC50 was 6.00 to 7.00. In the case of [2H]C([2H])([2H])NC(=O)[C@H]1CCC[C@@H](N(C(=O)c2nn(-c3ccsc3)c3c2COc2cc(OC)c(C=C(C)C)cc2-3)C([2H])([2H])[2H])C1 [Compound 107], the pEC50 was < 5.30. For COc1cc2c(cc1C=C(C)C)-c1c(c(C(=O)N(C)C(C)(C)C)nn1-c1cccs1)CO2 [Compound 90, 7-Methoxy-8-(2-methyl-propenyl)-1-thiophen-2-yl-1,4-dihydro-chromeno[4,3-c]pyrazole-3-carboxylic Acid tert-butyl-methyl-amide], the pEC50 was > 7.00. In the case of [2H]C([2H])([2H])N(C(=O)c1nn(-c2ccsc2)c2c1COc1cc(OC)c(-c3ccn(C)n3)cc1-2)C1CCOC1 (stereo not shown) [Compound 140], the pEC50 was 5.30 to 6.00. With COc1cc2c(cc1C1=CCCO1)-c1c(c(C(=O)N(C)C(C)(C)C)nn1-c1ccsc1)CO2 [Compound 74, 8-(4,5-Dihydro-furan-2-yl)-7-methoxy-1-thiophen-3-yl-1,4-dihydro-chromeno[4,3-c]pyrazole-3-carboxylic acid tert-butyl-methyl-amide] the pEC50 was > 7.00. For [2H]C([2H])([2H])O[C@@H]1CC[C@H](N(C(=O)c2nn(-c3ccsc3)c3c2COc2cc(OC)c(-c4ccn(C)c4)cc2-3)C([2H])([2H])[2H])C1 [Compound 178], the pEC50 was 5.30 to 6.00. Molecule CCOC(=O)C1CCN(C(=O)c2nn(-c3ccsc3)c3c2COc2cc(OC)c(C=C(C)C)cc2-3)CC1 [Compound 14, 1-{7-Methoxy-8-(2-methyl-propenyl)-1-thiophen-3-yl-1,4-dihydro-chromeno[4,3-c]pyrazole-3-carbonyl]-piperidine-4-carboxylic acid ethyl ester] has a pEC50 of 5.30 to 6.00. With CCn1nc(C)c(-c2cc3c(cc2OC)OCc2c(C(=O)N4CCOCC4(C)C)nn(-c4ccsc4)c2-3)c1C [Compound 204, (3,3-Dimethyl-morpholin-4-yl)-[8-(1-ethyl-3,5-dimethyl-1H-pyrazol-4-yl)-7-methoxy-1-thiophen-3-yl-1,4-dihydro-chromeno[4,3-c]pyrazol-3-yl]-methanone] the pEC50 was > 7.00. [2H]C([2H])([2H])O[C@@H]1CC[C@H](N(C(=O)c2nn(-c3ccsc3)c3c2COc2cc(OC)c(-c4ccn(C)n4)cc2-3)C([2H])([2H])[2H])C1 [Compound 177] was tested, and the pEC50 was 5.30 to 6.00.

— patent publication US11365199B2, “Pyrazole compounds as modulators of FSHR and uses thereof” (Merck Patent GmbH, priority 2013, dated 2022)
